Data as given in US6800622B1, “Pyrene-linked pyrrolo[2,1-c][1,4]benzodiazepine hybrids useful as anti-cancer agents” (Council of Scientific and Industrial Research, priority 2003, dated 2004).

Key:
SF-268 (CNS) = assay: In vitro one dose primary anticancer assay (NCI); assay type: cell-based, human; details: one dose at 10^−4 molar concentration
Method: (§1) In vitro biological activity studies were carried out at National Cancer Institute (USA).
(§2) Compounds Ve and Vg were evaluated the primary anti-cancer activity (Table 1) and further Ve have been evaluated in vitro against sixty human tumour cells derived from nine cancer types (leukemia, non-small-cell lung, colon, CNS, melanoma, ovarian, prostate, and breast cancer). For each compound, dose response curves for each cell line were measured at a minimum of five concentrations at 10 fold dilutions. A protocol of 48 h continuous drug exposure was used and a sulforhodamine B (SRB) protein assay was used to estimate cell viability or growth. The concentration causing 50% cell growth inhibition (GI50), total cell growth inhibition (TGI 0% growth) and 50% cell death (LC50, −50% growth) compared with the control was calculated.

MCF7 (Breast) = assay: In vitro one dose primary anticancer assay (NCI); assay type: cell-based, human; details: one dose at 10^−4 molar concentration
Method: as §1, §2

NCI-H460 (Lung) = assay: In vitro one dose primary anticancer assay (NCI); assay type: cell-based, human; details: one dose at 10^−4 molar concentration
Method: as §1, §2

sixty human tumour cells = assay: NCI in vitro cytotoxicity, SRB assay, mean graph midpoints; assay type: cell-based; details: 48 h continuous drug exposure, human tumour cell lines
Method: as §1, §2

Compound: COc1cc2c(cc1OCCCCC(=O)Nc1ccc3ccc4cccc5ccc1c3c45)N=C[C@@H]1CCCN1C2=O [Vg, 7-Methoxy-8-[N-(1″-pyrenyl)-butane-4′-carboxamide]-oxy-(11aS)-1,2,3,11a-tetra-hydro-5H-pyrrolo[2,1-c][1,4]benzodiazepin-5-one]
- Growth percentages (CNS) SF-268 (SF-268 (CNS)): 131%
- Growth percentages (Breast) MCF7 (MCF7 (Breast)): 72%
- Growth percentages (Lung) NCI-H460 (NCI-H460 (Lung)): 106%

Compound: COc1cc2c(cc1OCCCC(=O)Nc1ccc3ccc4cccc5ccc1c3c45)N=C[C@@H]1CCCN1C2=O [Ve, 7-Methoxy-8-[N-(1″-pyrenyl)-propane-3′-carboxamide]-oxy-(11aS)-1,2,3,11a tetra-hydro-5H-pyrrolo[2,1-c][1,4]benzodiazepin-5-one]
- Growth percentages (CNS) SF-268 (SF-268 (CNS)): 70%
- Growth percentages (Breast) MCF7 (MCF7 (Breast)): 31%
- Growth percentages (Lung) NCI-H460 (NCI-H460 (Lung)): 11%
- Log10 TGI mean graph midpoint (MG_MID) (sixty human tumour cells): −6.89
